Test results reported in US11324724B2, “N-(2,2-difluoroethyl)-N-[(pyrimidinylamino)propanyl]arylcarboxamides” (Boehringer Ingelheim International GmbH, priority 2017, dated 2022).

Biological target: T1, human Orexin 1 receptor (Homo sapiens, UniProt O43613)
T1 construct: stably expressing the full-length human Orexin 1 receptor; expressed in transfected cells; host or cells: CHO-K1 (CHO-K1/hOx1), co-expressing aequorin
T1 sequence (O43613 1-425): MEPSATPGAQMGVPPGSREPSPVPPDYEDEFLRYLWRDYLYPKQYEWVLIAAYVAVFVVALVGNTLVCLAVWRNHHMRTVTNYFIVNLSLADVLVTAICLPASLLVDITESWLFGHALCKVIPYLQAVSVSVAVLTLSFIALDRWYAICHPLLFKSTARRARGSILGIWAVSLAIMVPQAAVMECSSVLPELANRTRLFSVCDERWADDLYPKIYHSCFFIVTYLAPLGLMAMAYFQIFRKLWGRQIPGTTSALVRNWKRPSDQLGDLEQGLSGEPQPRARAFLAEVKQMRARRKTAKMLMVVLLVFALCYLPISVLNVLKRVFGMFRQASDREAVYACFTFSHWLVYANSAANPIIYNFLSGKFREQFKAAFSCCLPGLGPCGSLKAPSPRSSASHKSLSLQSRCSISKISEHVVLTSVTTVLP
Assay: Assay A: in vitro testing of OX1R potency, OX1R IP1
Format: cell-based
Conditions: 0.5 nM Orexin A concentration
Excerpt: (§1) Activation of the orexin receptors expressed in cell lines results in an increase in intracellular IP3 concentration. IP1, a downstream metabolite of IP3, accumulates in cells following receptor activation and is stable in the presence of LiCl. Using Homogeneous Time-Resolved Fluorescence technology with Lumi4-Tb cryptate (commercially available from Cisbio Bioassay.) and a suitable fluorescence plate reader. This functional response is detectable and quantifiable as described in Trinquet et al. Anal. Biochem. 2006, 358, 126-135, Degorce et al. Curr. Chem. Genomics 2009, 3, 22-32. This technique is used to characterize pharmacological modification of the orexin receptors.
A. In Vitro Testing of OX1R Potency: OX1R IP1
IP1 measurements are performed in CHO-K1 cells stably expressing the full-length human Orexin 1 receptor and the aequorin photoprotein. Cells are cultivated in Ham's nutrient mixture F12 medium with 10% fetal calf serum, in a 37° C., 95% humidity and 5% CO2 incubator. The CHO-K1/hOx1 cell mass is expanded to larger cell numbers. The cells are obtained as frozen cells in cryo-vials and stored until use at −150° C. The viability of the cells after thawing is >90%. In preparation for the assay, 24 hours before the assay, the cells are thawed at 37° C. and immediately diluted with cell culture medium. After centrifugation, the cell pellet is re-suspended in medium and then distributed into the assay plates with a density of 10000 cells/25 μL per well. The plates are incubated for one hour at room temperature to reduce edge effects before they are incubated for 24 hours at 37° C./5% CO2. Compounds are prepared by an 8-point serial dilution in DMSO and a final dilution step into assay buffer (HBSS with 20 mM HEPES, 0.1% BSA and 50 mM LiCl, pH 7.4) to ensure a final DMSO concentration of 1% in the assay.
On the day of the assay, cells in the plate are washed twice with 60 μL assay buffer (20 μL buffer remained in the wells after washing), followed by adding 5 μL per well of compounds diluted in assay buffer. After 15 minutes of incubation at room temperature 5 μL per well of Orexin A peptide (final concentration: 0.5 nM, and/or 50 nM) dissolved in assay buffer is added to the assay plate. The assay plate is incubated for 60 minutes at 37° C. Then 5 μl per well of Anti-IP1-Cryptate Tb solution and 5 μl per well of IP1-d2 dilution are added and the plate is incubated for a further 60 minutes light protected at room temperature. The emissions at 615 nm and 665 nm (Excitation wavelength: 320 nm) are measured using an EnVision reader (PerkinElmer). The ratio between the emission at 665 nm and 615 is calculated by the reader.
(§2) 8-point four parametric non-linear curve fitting and determination of IC50 values and Hill slopes is performed using a regular analysis software e.g. AssayExplorer (Accelrys). In order to establish an agonist concentration independent parameter, Kb values are calculated using the following equation: IC50/((2+(A/EC50)^n)^1/n−1) (with A=concentration agonist, EC50=EC50 agonist, n=Hill slope agonist) (see P. Leff, I. G. Dougall, Trends Pharmacol. Sci. 1993, 14(4),110-112).

| SMILES | Kb [nM] |
| --- | --- |
| C[C@@H](CNc1ncc(C(F)(F)F)cn1)N(CC(F)F)C(=O)c1cc(F)cc(F)c1-n1nccn1 [Example 1] | 1.17 |
| C[C@@H](CNc1ncc(C(F)(F)F)cn1)N(CC(F)F)C(=O)c1cccc(F)c1-n1nccn1 [Example 2] | 0.63 |
| C[C@@H](CNc1ncc(C(F)(F)F)cn1)N(CC(F)F)C(=O)c1cccc(F)c1-c1ncccn1 [Example 3] | 0.19 |

Same assay, conditions: selectivity ratio of Assay B and Assay A Kb

| SMILES | OX2R Kb/OX1R Kb |
| --- | --- |
| C[C@@H](CNc1ncc(C(F)(F)F)cn1)N(CC(F)F)C(=O)c1cc(F)cc(F)c1-n1nccn1 [Example 1] | 214 |
| C[C@@H](CNc1ncc(C(F)(F)F)cn1)N(CC(F)F)C(=O)c1cccc(F)c1-n1nccn1 [Example 2] | 138 |
| C[C@@H](CNc1ncc(C(F)(F)F)cn1)N(CC(F)F)C(=O)c1cccc(F)c1-c1ncccn1 [Example 3] | 568 |

Biological target: T2, human orexin 2 receptor (Homo sapiens, UniProt O43614)
T2 construct: stably expressing the full-length human orexin 2 receptor; expressed in transfected cells; host or cells: CHO-K1 (CHO-K1/hOx2), co-expressing aequorin
T2 sequence (O43614 1-444): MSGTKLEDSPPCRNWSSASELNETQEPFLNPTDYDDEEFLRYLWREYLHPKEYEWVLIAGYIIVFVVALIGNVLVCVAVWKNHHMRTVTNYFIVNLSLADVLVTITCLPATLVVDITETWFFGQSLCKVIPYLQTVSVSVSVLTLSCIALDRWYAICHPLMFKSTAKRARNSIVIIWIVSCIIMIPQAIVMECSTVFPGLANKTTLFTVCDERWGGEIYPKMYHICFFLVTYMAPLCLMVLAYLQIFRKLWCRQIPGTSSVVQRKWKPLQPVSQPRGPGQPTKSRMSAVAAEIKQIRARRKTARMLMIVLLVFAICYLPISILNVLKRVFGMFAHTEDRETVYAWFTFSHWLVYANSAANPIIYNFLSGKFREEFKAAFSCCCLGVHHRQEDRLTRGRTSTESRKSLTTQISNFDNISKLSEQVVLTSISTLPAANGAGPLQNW
Assay: Assay B: in vitro testing of OX2R potency, OX2R IP1
Format: cell-based
Conditions: 0.5 nM Orexin A concentration
Excerpt: as §1
B. In Vitro Testing of OX2R Potency: OX2R IP1
IP1 measurements are performed in CHO-K1 cells stably expressing the full-length human orexin 2 receptor and the aequorin photoprotein. Cells are cultivated in Ham's nutrient mixture F12 medium with 10% fetal calf serum, in a 37° C., 95% humidity and 5% CO2 incubator. The CHO-K1/hOx2 cell mass is expanded to larger cell numbers. The cells are obtained as frozen cells in cryo-vials and stored until use at −150° C. The viability of the cells after thawing is >90%. In preparation for the assay, 24 hours before the assay, the cells are thawed at 37° C. and immediately diluted with cell culture medium. After centrifugation, the cell pellet is resuspended in medium and then distributed into the assay plates with a density of 5000 cells/25 μper well. The plates are incubated for one hour at room temperature to reduce edge effects before they are incubated for 24 hours at 37° C./5% CO2. Compounds are prepared by a 8-point serial dilution in DMSO and a final dilution step into assay buffer (HBSS with 20 mM HEPES, 0.1% BSA and 50 mM LiCl, pH 7.4) to ensure a final DMSO concentration of 1% in the assay. On the day of the assay, cells in the plate are washed twice with 60 μL assay buffer (20 μL buffer remained in the wells after washing), followed by adding 5 μL per well of compounds diluted in assay buffer. After 15 minutes of incubation at room temperature 5 μL per well of Orexin A peptide (final concentration: 0.5 nM) dissolved in assay buffer is added to the assay plate. The assay plate is incubated for 60 minutes at 37° C. Then 5 μl per well of Anti-IP1-Cryptate Tb solution and 5 μl per well of IP1-d2 dilution are added to all well of the plate and the plate is incubated for a further 60 minutes light protected at room temperature. The emission at 615 nm and 665 nm (Excitation wavelength: 320 nm) are measured using an EnVision reader (PerkinElmer). The ratio between the emission at 665 nm and 615 is calculated by the reader.
as §2

| SMILES | Kb [nM] |
| --- | --- |
| C[C@@H](CNc1ncc(C(F)(F)F)cn1)N(CC(F)F)C(=O)c1cc(F)cc(F)c1-n1nccn1 [Example 1] | 251 |
| C[C@@H](CNc1ncc(C(F)(F)F)cn1)N(CC(F)F)C(=O)c1cccc(F)c1-n1nccn1 [Example 2] | 87.1 |
| C[C@@H](CNc1ncc(C(F)(F)F)cn1)N(CC(F)F)C(=O)c1cccc(F)c1-c1ncccn1 [Example 3] | 108 |

Tested on: not listed separately
Assay: Assay C: metabolic stability in human liver microsomes (Human MST)
Format: in vitro ADME
Conditions: pH 7.6, pooled human liver microsomes, 37° C., read-out: Assay C: Human MST t1/2
Method: C. Assessment of Metabolic Stability in Human Liver Microsomes (Human MST)
The metabolic stability of the compounds according to the invention may be investigated as follows:
The metabolic degradation of the test compound is assayed at 37° C. with pooled human liver microsomes. The final incubation volume of 100 μL per time point contains TRIS buffer pH 7.6 at room temperature (0.1 M), MgCl2 (5 mM), microsomal protein (1 mg/mL) and the test compound at a final concentration of 1 μM. Following a short pre-incubation period at 37° C., the reactions are initiated by addition of beta-nicotinamide adenine dinucleotide phosphate, reduced form (NADPH, 1 mM), and terminated by transferring an aliquot into solvent after different time points. After centrifugation (10000 g, 5 min), an aliquot of the supernatant is assayed by LC-MS/MS for the amount of parent compound. The half-life (t1/2) is determined by the slope of the semi-logarithmic plot of the concentration-time profile.

| SMILES | half-life at 1 μM [h] |
| --- | --- |
| C[C@@H](CNc1ncc(C(F)(F)F)cn1)N(CC(F)F)C(=O)c1cc(F)cc(F)c1-n1nccn1 [Example 1] | > 2.17 |
| C[C@@H](CNc1ncc(C(F)(F)F)cn1)N(CC(F)F)C(=O)c1cccc(F)c1-n1nccn1 [Example 2] | > 2.17 |
| C[C@@H](CNc1ncc(C(F)(F)F)cn1)N(CC(F)F)C(=O)c1cccc(F)c1-c1ncccn1 [Example 3] | > 2.17 |

Tested on: human MDR1 P-gp
Assay: Assay D: efflux in MDCK cells transfected with the human MDR1 gene
Format: in vitro ADME, canine
Conditions: dog; MDCK-MDR1, pH 7.4, 37° C.; read-out: Assay D: MDCK efflux ratio (BA/AB)
Method: The MDCK assay provides information on the potential of a compound to pass the blood brain barrier. Permeability measurements across polarized, confluent MDCK-MDR1 cell monolayers grown on permeable filter supports are used as an in vitro absorption model: apparent permeability coefficients (PE) of the compounds across the MDCK-MDR1 cell monolayers are measured (pH 7.4, 37° C.) in apical-to-basal (AB) and basal-to-apical (BA) transport direction.
The AB permeability (PEAB) represents drug absorption from the blood into the brain and the BA permeability (PEBA) drug efflux from the brain back into the blood via both, passive permeability as well as active transport mechanisms mediated by efflux and uptake transporters that are expressed on the MDCK-MDR1 cells, predominantly by the overexpressed human MDR1 P-gp. Identical or similar permeabilities in both transport directions indicate passive permeation, vectorial permeability points to additional active transport mechanisms. Higher PEBA than PEAB (PEBA/PEAB>5) indicates the involvement of active efflux mediated by MDR1 P-gp, which might compromises the goal to achieve sufficient brain exposure. Therefore this assay provides valuable support for selection of compounds applicable for further in vivo testing. High permeability not limited by efflux at the blood brain barrier is a favourable characteristic for compounds that are to be used for drugs acting primarily in the CNS
D. Assessment of Efflux in Madin-Darby Canine Kidney (MDCK) Cells Transfected with the Human MDR1 Gene
Apparent permeability coefficients (PE) of the compounds across the MDCK-MDR1 cell monolayers are measured (pH 7.4, 37° C.) in apical-to-basal (AB) and basal-to-apical (BA) transport direction. AB permeability (PEAB) represents drug absorption from the blood into the brain and BA permeability (PEBA) drug efflux from the brain back into the blood via both passive permeability as well as active transport mechanisms mediated by efflux and uptake transporters that are expressed on the MDCK-MDR1 cells, predominantly by the overexpressed human MDR1 P-gp. The compounds are assigned to permeability/absorption classes by comparison of the AB permeabilities with the AB permeabilities of reference compounds with known in vitro permeability and oral absorption in the human. Identical or similar permeabilities in both transport directions indicate passive permeation, vectorial permeability points to additional active transport mechanisms. Higher PEBA than PEAB indicates the involvement of active efflux mediated by MDR1 P-gp. Active transport is concentration-dependently saturable.
MDCK-MDR1 cells (1-2×10 e5 cells/1 cm2 area) are seeded on filter inserts (Costar transwell polycarbonate or PET filters, 0.4 μm pore size) and cultured (DMEM) for 7 days. Subsequently, the MDR1 expression is boosted by culturing the cells with 5 mM sodium butyrate in full medium for 2 days. Compounds are dissolved in appropriate solvent (like DMSO, 1-20 mM stock solutions). Stock solutions are diluted with HTP-4 buffer (128.13 mM NaCl, 5.36 mM KCl, 1 mM MgSO4, 1.8 mM CaCl2, 4.17 mM NaHCO3, 1.19 mM Na2HPO4×7H2O, 0.41 mM NaH2PO4×H2O, 15 mM HEPES, 20 mM glucose, 0.25% BSA, pH 7.4) to prepare the transport solutions (0.1-300 μM compound, final DMSO<=0.5%). The transport solution (TL) is applied to the apical or basolateral donor side for measuring A-B or B-A permeability (3 filter replicates), respectively. The receiver side contains the same buffer as the donor side. Samples are collected at the start and end of experiment from the donor and at various time intervals for up to 2 hours also from the receiver side for concentration measurement by HPLC-MS/MS or scintillation counting. Sampled receiver volumes are replaced with fresh receiver solution.

| SMILES | efflux ratio |
| --- | --- |
| C[C@@H](CNc1ncc(C(F)(F)F)cn1)N(CC(F)F)C(=O)c1cc(F)cc(F)c1-n1nccn1 [Example 1] | < 3 |
| C[C@@H](CNc1ncc(C(F)(F)F)cn1)N(CC(F)F)C(=O)c1cccc(F)c1-n1nccn1 [Example 2] | < 3 |
| C[C@@H](CNc1ncc(C(F)(F)F)cn1)N(CC(F)F)C(=O)c1cccc(F)c1-c1ncccn1 [Example 3] | < 3 |
